Consider 1 cell line from the supplement of paper PMC10307832.

What all share (experiment): relative viability (nuclei count vs DMSO), 5 days (fraction); higher = more cells survive
Compound in the assay “Kobe2602 + OSI-027”: C1=CC(=CC=C1NC(=S)NNC2=C(C=C(C=C2[N+](=O)[O-])C(F)(F)F)[N+](=O)[O-])F [Kobe2602] + COc1cccc2cc(-c3nc([C@H]4CC[C@H](C(=O)O)CC4)n4ncnc(N)c34)[nH]c12 [OSI-027] (partner 0.5 µM)
In a few lines:
(§1)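 Relative viability equals treated-well nuclei counts divided by vehicle-well nuclei counts. Counts came from 4× images of lung cancer cell lines grown in 1536-well plates for 5 days after pin-tool dosing on the day after seeding. Dosing used one drug alone or a fixed anchor-drug dose plus five library-drug doses (not always all listed) in √10 steps, and values are medians of duplicate plates.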

Compound in the assay “Cabozantinib + Foretinib”: COc1cc2nccc(Oc3ccc(NC(=O)C4(C(=O)Nc5ccc(F)cc5)CC4)cc3)c2cc1OC [Cabozantinib] + COc1cc2c(Oc3ccc(NC(=O)C4(C(=O)Nc5ccc(F)cc5)CC4)cc3F)ccnc2cc1OCCCN1CCOCC1 [Foretinib] (partner 0.25 µM)
The gist of the method: as §1

Compound in assay [1]: COc1cc2nccc(Oc3ccc(NC(=O)C4(C(=O)Nc5ccc(F)cc5)CC4)cc3)c2cc1OC [Cabozantinib] + CS(=O)(=O)N1CCN(Cc2cc3nc(-c4cccc5[nH]ncc45)nc(N4CCOCC4)c3s2)CC1 [Pictilisib] (partner 1 µM)
In a few lines:
as §1

Compound in the assay “Zosuquidar + Foretinib”: O[C@@H](COc1cccc2ncccc12)CN1CCN([C@@H]2c3ccccc3[C@@H]3[C@H](c4ccccc42)C3(F)F)CC1 [Zosuquidar] + COc1cc2c(Oc3ccc(NC(=O)C4(C(=O)Nc5ccc(F)cc5)CC4)cc3F)ccnc2cc1OCCCN1CCOCC1 [Foretinib] (partner 0.25 µM)
The gist of the method:
as §1

For UMC-11, the relative viability in the assay with Kobe2602 + OSI-027 (first compound 0.2 µM) was 0.461; with Kobe2602 + OSI-027 (first compound 0.6325 µM), 0.537; in the assay with Kobe2602 + OSI-027 (first compound 2 µM), 0.539; with Kobe2602 + OSI-027 (first compound 6.325 µM), 0.459; in the assay with Kobe2602 + OSI-027 (first compound 20 µM), 0.467; with Cabozantinib + Foretinib (first compound 0.02 µM), 0.959. The relative viability was determined as 1.21 in the assay with Cabozantinib + Foretinib (first compound 0.06325 µM); 1.01 in the assay with Cabozantinib + Foretinib (first compound 0.2 µM); 1.03 with Cabozantinib + Foretinib (first compound 0.6325 µM); 0.942 in the assay with Cabozantinib + Foretinib (first compound 2 µM); 0.804 in assay [1] (first compound 0.02 µM); 0.96 in assay [1] (first compound 0.06325 µM). Further, the relative viability in assay [1] (first compound 0.2 µM) was 0.8; in assay [1] (first compound 0.6325 µM), 0.782; in assay [1] (first compound 2 µM) it was 0.76; with Zosuquidar + Foretinib (first compound 0.01 µM), 1.07; with Zosuquidar + Foretinib (first compound 0.03162 µM) it was 1.01; with Zosuquidar + Foretinib (first compound 0.1 µM), 1.19. In addition, the relative viability with Zosuquidar + Foretinib (first compound 0.3162 µM) is 1.12; with Zosuquidar + Foretinib (first compound 1 µM) it was 0.987.
